# Source: patent US7232809B2, “Mitochondrially targeted antioxidants” (Antipodean Pharmaceuticals, Inc., priority 1997, dated 2007)
# Like-named read-outs stand apart in the source and are kept apart here.
# What was measured:
# rat brain homogenates = experiment: Inhibition of lipid peroxidation in rat brain homogenates (TBARS assay); assay type: biochemical
# Description: The rat brain homogenates were incubated with or without various concentrations of the test compounds (compound 1; native Vitamin E (α-tocopherol), bromobutyl triphenylphosphonium bromide, Trolox (a water soluble form of Vitamin E) and compound 2, ie2-(2-bromoethyl)-3,4-dihydro-2,5,7,8-tetramethyl-2H-1-benzopyran-6-ol, the precursor of compound 1 (“Brom Vit E”)) and the oxidative damage occurring over the incubation was quantitated using the TBARS assay (Stocks et al., 1974, Clin Sci Mol Med 47,215–222). From this the concentration of compound required to inhibit oxidative damage by 50% was determined. In this system 210 nM compound 1 inhibited oxidative stress by 50% while the corresponding value for native Vitamin E was 36 nM. The value for bromobutyltriphenylphosphonium bromide, which contains the triphenylphosphonium moiety but not the antioxidant Vitamin E moiety was 47 μM. […] Further details of the experimental procedures and results are set out below.
# (§1) The IC50 values for inhibition of lipid peroxidation were determined in rat brain homogenates, and are means±SEM or range of determinations on 2–3 brain preparations. Octan-1-ol/PBS partition coefficients are means±SEM for three independent determinations. N.D. not determined. Partition coefficients were determined by mixing 200 μM of the compound in 2 ml water-saturated octanol-1-ol with 2 ml octanol-saturated-PBS at room temperature for 1 h, then the two layers were separated by brief centrifugation and their concentrations determined spectrophotometrically from standard curves prepared in PBS or octanol. To measure antioxidant efficacy four rat brains were homogenised in 15 ml 40 mM potassium phosphate (pH 7.4), 140 mM NaCl at 4° C., particulate matter was pelleted (1,000×g at 4° C. for 15 min) and washed once and the combined supernatants stored frozen. Aliquots were rapidly thawed and 5 mg protein suspended in 800 μl PBS containing antioxidant or ethanol carrier and incubated at 37° C. for 30 min. Thiobarbituric acid reactive species (TBARS) were quantitated at 532 nm by adding 200 μl conc. HClO4 and 200 μl 1% thiobarbituric acid to the incubation, heating at 100° C. for 15 min and then cooling and clarification by centrifugation (10,000×g for 2 min).
# [1] = test system: pentane extracted beef heart mitochondria; experiment: Reactions with pentane-extracted beef heart mitochondria; assay type: biochemical; conditions: for restoration of NADH oxidation: pentane extracted beef heart mitochondria, NADH 125 μM, 50 μM compound
# Description: Pentane extracted beef heart mitochondria (100 μg protein/ml) were suspended in 50 mM sodium phosphate, pH 7.2 at 20° C. In Panel A NADH (125 μM) was added and A340 was monitored and ubiquinone-1 (UQ-1; 50 μM added where indicated. This was repeated in Panel b, except that mitoubiquinone (50 μM) was added. In Panel C pentane extracted mitochondria were incubated with mitoquinone (50 μM), A275 was monitored and succinate (5 mM) and malonate (20 mM) added where indicated. In Panel D pentane-extracted mitochondria were incubated with NADH (125 μM), ferricytochrome c (50 μM) and A550 was monitored and mitoquinone (50 μM) was added where indicated. Addition of myxathiazol inhibited the rate of reduction by about 60–70%;
# Mitoquinone/ol may be picking up and donating electrons directly from the active sites of the respiratory complexes, or it could be equilibrating with the endogenous mitochondrial ubiquinone pool. To address this question the endogenous ubiquinone pool was removed from beef heart mitochondria by pentane extraction.
# [2] = Octan-1-ol/PBS partition coefficient; assay type: physicochemical; conditions: 200 μM, room temperature, 1 h, means±SEM of three
# Description: as §1
# ferricytochrome c = ferricytochrome c (Homo sapiens, UniProt P99999); experiment: Reactions of mitoquinone in the absence of mitochondrial membranes; assay type: biochemical
# Sequence of ferricytochrome c (P99999 whole entry): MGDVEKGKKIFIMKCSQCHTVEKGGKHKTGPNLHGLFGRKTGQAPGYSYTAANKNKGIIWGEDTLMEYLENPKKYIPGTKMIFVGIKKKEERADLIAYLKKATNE
# Description: FIGS. […] In panel A rotenone and antimycin were present and for the t=0 scan, then succinate (5 mM) was added and scans repeated at 5 minute intervals as indicated. In panel B A275 was monitored in the presence of rotenone and antimycin and then mitoquinone (50 μM) was added, followed by succinate (5 mM) and malonate (20 mM) where indicated. In Panel C rotenone, ferricytochrome c (50 μM) and malonate (20 mM) were present, A275 was monitored and mitoquinol (50 μM) and myxathiazol (10 μM) were added where indicated. In panel D A550 was monitored and the experiment in Panel C was repeated in the presence of KCN. Addition of myxathiazol inhabited this rate by about 60–70%.
# rat liver mitochondria [3] = experiment: Reduction of mitoquinone by intact mitochondria (A275); assay type: biochemical
# Description: Rat liver mitochondria (100 μg/ml) were incubated in 120 mM KCl, 10 mM HEPES, 1 mM EGTA, pH 7.2 at 20° C. and A275 monitored. In panel A rotenone and succinate (5 mM) were present and mitoquinone (50 μM) was added where indicated. This experiment was repeated in the presence of malonate (20 mM) or FCCP ([…]). In panel B glutamate and malate (5 mM of each) were present from the start and mitoquinone (50 μM) was added where indicated. This experiment was repeated in the presence of FCCP or with rotenone and FCCP.
# [4] = target: T1, beef heart mitochondrial membranes, Complex II (Bos taurus, UniProt P35720+Q3T189+Q95123); experiment: Reduction of mitoquinone by beef heart mitochondrial membranes with succinate (Complex II); assay type: biochemical
# T1 construct: from tissue; host or cells: beef heart mitochondrial membranes
# T1 sequence (P35720 30-169): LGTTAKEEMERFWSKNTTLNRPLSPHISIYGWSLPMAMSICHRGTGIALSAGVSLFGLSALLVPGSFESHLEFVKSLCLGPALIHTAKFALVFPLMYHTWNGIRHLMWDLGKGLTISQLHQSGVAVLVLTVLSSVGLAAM
# T1 sequence (Q95123 56-158): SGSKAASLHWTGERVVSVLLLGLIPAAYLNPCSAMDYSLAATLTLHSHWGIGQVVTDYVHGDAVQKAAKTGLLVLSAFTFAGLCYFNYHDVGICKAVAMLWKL
# T1 sequence (Q3T189 29-280): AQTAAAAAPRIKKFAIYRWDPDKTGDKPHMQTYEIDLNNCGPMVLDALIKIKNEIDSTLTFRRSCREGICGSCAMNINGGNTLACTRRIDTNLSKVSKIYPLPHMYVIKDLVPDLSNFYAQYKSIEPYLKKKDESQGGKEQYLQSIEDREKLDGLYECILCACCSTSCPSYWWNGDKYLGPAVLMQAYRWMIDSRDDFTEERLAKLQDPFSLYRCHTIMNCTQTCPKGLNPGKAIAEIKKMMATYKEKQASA
# T1 sequence (P31039 44-665 partner): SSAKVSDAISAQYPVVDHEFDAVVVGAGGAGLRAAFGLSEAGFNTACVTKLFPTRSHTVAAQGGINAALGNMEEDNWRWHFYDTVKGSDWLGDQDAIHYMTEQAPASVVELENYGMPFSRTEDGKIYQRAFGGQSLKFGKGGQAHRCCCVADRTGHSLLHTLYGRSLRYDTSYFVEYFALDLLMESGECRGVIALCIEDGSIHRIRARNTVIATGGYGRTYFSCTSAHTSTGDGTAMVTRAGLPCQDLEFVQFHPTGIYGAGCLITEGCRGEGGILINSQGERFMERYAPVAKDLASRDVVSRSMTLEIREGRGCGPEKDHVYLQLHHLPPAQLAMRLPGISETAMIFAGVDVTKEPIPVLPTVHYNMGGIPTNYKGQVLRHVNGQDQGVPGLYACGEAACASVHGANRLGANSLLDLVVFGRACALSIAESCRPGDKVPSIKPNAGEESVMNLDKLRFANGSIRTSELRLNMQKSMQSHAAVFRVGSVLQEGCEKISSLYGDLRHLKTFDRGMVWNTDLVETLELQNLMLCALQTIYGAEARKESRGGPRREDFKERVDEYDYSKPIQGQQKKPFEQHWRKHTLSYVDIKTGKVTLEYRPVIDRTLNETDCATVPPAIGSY
# Description: FIGS. 12A to 12D show reactions of [10-(6′-ubiquinonyl)decyltriphenylphosphonium bromide] (“mitoquinone”) and the reduced form of the compound (“mitoquinol”) with mitochondrial membranes. Beef heart mitochondrial membranes (20 μg/ml) were suspended in 50 mM sodium phosphate, pH 7.2 at 20° C. In panel A rotenone and antimycin were present and for the t=0 scan, then succinate (5 mM) was added and scans repeated at 5 minute intervals as indicated. In panel B A275 was monitored in the presence of rotenone and antimycin and then mitoquinone (50 μM) was added, followed by succinate (5 mM) and malonate (20 mM) where indicated. In Panel C rotenone, ferricytochrome c (50 μM) and malonate (20 mM) were present, A275 was monitored and mitoquinol (50 μM) and myxathiazol (10 μM) were added where indicated. In panel D A550 was monitored and the experiment in Panel C was repeated in the presence of KCN. Addition of myxathiazol inhabited this rate by about 60–70%.
# To determine whether the mitochondrial respiratory chain could also oxidise or reduce the compound mitoquinone was incubated with beef heart mitochondrial membranes (FIG. 12). In panel A the spectrum of fully oxidised mitoquinone in the presence of antimycin inhibited membranes is shown (t=0; FIG. 12A). Addition of succinate led to the gradual reduction of the […] as measured by repeating the measurement every five minutes and showing that the peak at 275 nm gradually disappeared, the presence of antimycin prevented the oxidation of the quinol by mitochondrial complex III.
# The reduction of mitoquinone can be followed continuously at A275 nm (FIG. 12B). […] The rate of reduction of mitoquinone was 51±9.9 nmol/min/mg protein, which compares with the rate of reduction of cytochrome c by succinate in the presence of KCN of 359 nmol/min/mg. Allowing for the 2 electrons required for mitoquinone reduction compared with 1 for cytochrome c the rate of electron flux into the mitoquinone pool is of similar order to the electron flux through the respiratory chain.
# rat liver mitochondria [5] = experiment: Toxicity of mitoquinol to isolated mitochondria (membrane potential, respiration rate)
# Description: In A rat liver mitochondria energised with succinate were incubated with various concentrations of mitoquinol and the membrane potential determined as a percentage of control incubations. In B the respiration rate of succinate energised mitochondria under state 4 (black), state 3 (white) and uncoupled (stippled) conditions, as a percentage of control incubations.
# The next assays were to determine the toxicity of these compounds to mitochondria and cells. To determine the toxicity to isolated mitochondria the effect on membrane potential and respiration rate were measured (FIG. 16).
# rat liver mitochondria [6] = experiment: Uptake of radiolabelled mitoquinol by energised mitochondria; assay type: in vitro ADME; conditions: tritiated compound, reversed by FCCP
# Description: The next step was to see if mitoquinol was accumulated by energised mitochondria. To do this a tritiated version of the compound was made, incubated with energised mitochondria and the amount taken up into the mitochondria determined.
# [7] = Stability of the quinol form in air; assay type: physicochemical
# Description: The quinone was reduced to the quinol by taking a mixture of crude quinone and quinol (73 mg, ca. 3:1 by 1H NMR) in methanol (1 mL) was added NaBH4 (21 mg, 0.55 mmol). The mixture was stirred slowly under an argon atmosphere for 10 min. Excess NABH4 was quenched with 5% HBr (0.2 mL) and the mixture extracted with CH2Cl2. The organic extract was washed with H2O (3×5 mL). Solvent was removed under reduced pressure, giving a mixture of quinone and quinol (ca 1:5 by ^1H NMR) as a pale yellow solid (55 mg). For routine preparation of the quinol form the ethanolic solution, dissolve in 5 vols of water, (=1 ml) add a pinch of NaBH4 leave on ice in the dark for 5 min, then extract 3×0.5 ml dichloromethane, Wash with water/HCl etc blow off in nitrogen, dissolve in same vol of etoh and take spectrum and store at −80 under argon. Yield about 70–80%. […] Collect the upper organic phase and evaporate to dryness under a stream of N2 and dissolve in 1 ml ethanol acidified to pH 2.
# [8] = target: T2, beef heart mitochondrial membranes, Complex III (Bos taurus, UniProt P00157+P13272); experiment: Oxidation of mitoquinol by beef heart mitochondrial membranes (Complex III) and reduction of cytochrome c; assay type: biochemical
# T2 construct: from tissue; host or cells: beef heart mitochondrial membranes
# rat liver mitochondria [9] = test system: rat liver mitochondria
# [10] = means±SEM or range, 2–3 brain preparations, read-out: IC50 for inhibition of lipid peroxidation
# [11] = TBARS, read-out: concentration that inhibited oxidative stress by 50%
smiles,measurement,setting,value
Cc1c(C)c2c(c(C)c1O)CCC(C)(C(=O)O)O2 (stereo not drawn) [Trolox],IC50,rat brain homogenates; [10],18.5 ± 5.9 µM
"COC1=C(OC)C(=O)C(CC=C(C)C)=C(C)C1=O [ubiquinone-1, reference compound]",restoration of NADH oxidation,[1],partially restored
"Cc1c(C)c2c(c(C)c1O)CC[C@@](C)(CCC[C@H](C)CCC[C@H](C)CCCC(C)C)O2 [α-Tocopherol, α-tocopherol]",IC50,rat brain homogenates; [11],0.036 µM
same,Octanol:PBS partition coefficient,[2],27.4 ± 1.0
"COC1=C(OC)C(=O)C(CCCCCCCCCC[P+](c2ccccc2)(c2ccccc2)c2ccccc2)=C(C)C1=O [mitoquinone, 10-(6′-ubiquinonyl)decyltriphenylphosphonium bromide]",reaction on mixing with 50 μM ferricytochrome c,"ferricytochrome c; 50 μM, A550",some reduction of A550
same,reaction with succinate or NADH in the absence of mitochondrial membranes,ferricytochrome c; no membranes,no reaction
same,restoration of NADH oxidation,[1],restored NADH oxidation
same,inhibition of NADH-ferricytochrome c activity by myxathiazol,"[1]; pentane extracted mitochondria, mitoquinone 50 μM",60–70%
same,reduction by intact energised mitochondria,"rat liver mitochondria [3]; rat liver mitochondria, 50 μM",rapidly reduced
same,decrease of rate of reduction with FCCP,rat liver mitochondria [3]; uncoupler FCCP present,2–3 fold
same,proportion reduced by succinate,"[4]; antimycin inhibited beef heart membranes, succinate 5 mM",about 23%
same,Eh corresponding to proportion reduced,[4]; equilibration with succinate/fumarate couple,about +8 mV
same,rate of reduction of mitoquinone,"[4]; rotenone inhibited membranes, succinate",51±9.9 nmol/min/mg protein
"Cc1c(C)c2c(c(C)c1O)CCC(C)(CCBr)O2 (stereo not drawn) [Bromo Vit E, 2-(2-bromoethyl)-3,4-dihydro-6-hydroxy-2,5,7,8-tetramethyl-2H-1-benzopyran]",IC50,rat brain homogenates; [10],0.045 ± 0.026 µM
same,Octanol:PBS partition coefficient,[2],33.1 ± 4.4
"BrCCCC[P+](c1ccccc1)(c1ccccc1)c1ccccc1.[Br-] [BrBTP, bromobutyltriphenylphosphonium bromide]",IC50,rat brain homogenates; [11],47 µM
same,Octanol:PBS partition coefficient,[2],3.83 ± 0.22
"COc1c(O)c(C)c(CCCCCCCCCC[P+](c2ccccc2)(c2ccccc2)c2ccccc2)c(O)c1OC [mitoquinol, 10-(6′-ubiquinolyl)decyltriphenylphosphonium bromide]",effect on mitochondrial function,rat liver mitochondria [5]; 10 μM,little effect on mitochondrial function
same,effect on mitochondrial function,rat liver mitochondria [5]; 25 μM and above,some uncoupling and inhibition of respiration
same,accumulation by energised mitochondria,rat liver mitochondria [6],accumulated rapidly
same,stability in air,[7],Oxidises rapidly in air
same,inhibition of rate by myxathiazol,"[8]; FIG. 12 panel D, KCN present, myxathiazol 10 μM",60–70%
same,initial rate of oxidation of mitoquinol,"[8]; membranes inhibited with rotenone and malonate, mean of 2 +/- range",about 89±9 mmol mitoquinol/min/mg protein
same,initial rate of reduction of cytochrome c on addition of mitoquinol,"[8]; membranes supplemented with ferricytochrome c, mean+/-range",about 93+/−13 nmol/min/mg
same,cytochrome c reduction not blocked by myxathiazol,[8]; myxathiazol,30–40%
"C[P+](c1ccccc1)(c1ccccc1)c1ccccc1 [TPMP, methyltriphenylphosphonium, reference compound]",change in A275,rat liver mitochondria [3]; 50 μM added instead of mitoquinone,did not lead to changes in A275
same,proportion membrane-bound within mitochondria,rat liver mitochondria [9],About 60%
